One assay deals with ARIP and PANC-1 cells. Description: GLP-1 receptor (GLP-R) mRNA by cycle-titration RT-PCR. Particulars: GLP-1 10 nM for 72 h, transfected and non-transfected cells. The class given is cell-based. Here is the method: FIGS. 9A-C show GLP-1 receptor expression in ARIP and PANC-1 cells. ARIP and PANC-1 cells (transfected with human IDX-1, or solely with the neomycin resistant gene) were cultured in serum-free medium and treated with GLP-1 (10 nM), or vehicle alone, for 72 h. RT-PCR for GLP-R and β-actin was performed with a cycle-titration PCR (15, 20, 25, 30 PCR cycles) to assess the relative abundance of GLP-R transcript. Primers for both transcripts were added together in a single PCR-reaction for each individual sample. […] Each experiment was repeated four times, using RNA samples from independent cultures. The blots on the left represent one individual experiment, while the graphs on the right are the average of four independent experiments. The numeric values in the graphs represent the ratio of GLP-R mRNA to actin mRNA.
Treatment with GLP-1 induces the differentiation of ductal epithelial cells into insulin-producing cells. FIG. 2 illustrates a series of cell cultures grown with or without GLP-1 (10 nM) for 72 h. […] Preabsorption of the antibody with an excess of human recombinant insulin prevented the staining of insulin-positive GLP-1 treated cells (data not shown). While treatment with GLP-1 turned the majority of ARIP cells into glucokinase mRNAs, the same PCR conditions as described above were used in the presence of gene-specific primers. […]

Assay [1] deals with PANC-1 cells. Description: Morphological changes (hematoxylin and eosin), parental PANC-1 cells. Particulars: GLP-1 10 nM for 72 h. The class given is cell-based, human. From the text:
Hematoxylin and eosin staining was employed, in some experiments, to show the morphological changes observed under the experimental conditions described below.

Another assay deals with ARIP cells. The experiment in a line: Insulin release into culture medium (RIA), ARIP cells. It is filed as cell-based, rat. As to the method: Rat (ARIP) and human (PANC-1) ductal cell lines were respectively a gift from Dr. J. M. Egan (National Institute on Aging, Baltimore, Md.) or purchased from ATCC (American Type Culture Collection; Manassas, Va.). ARIP cells were cultured in F12 medium (Gibco-BRL, Gaithersburg; Md.) containing 100 μg/ml penicillin, 50 μg/ml streptomycin and 10% fetal calf serum (FCS; Gibco-BRL) at 37° C. under a humidified condition of 95% air and 5% CO2. PANC-1 cells were cultured in DMEM medium supplemented with antibiotics and FCS, as indicated for F12 medium. Treatment with human GLP-1 (H-6795, Bachem; King of Prussia, Pa.) was carried out using cells grown to 80% of confluence, after washing the cell layer with serum-free medium and a “wash-out” incubation for 6-h with serum free medium. To determine dose response to GLP-1, cells were cultured with fresh serum-free medium containing increasing concentration of GLP-1 (0.1, 1, 10, 20 nM), or vehicle alone. At the completion of the experiment, media and cells were collected. To determine the time course of response, cells were cultured in serum-free medium with GLP-1 (10 nM) for 0, 12, 24, 48, 72 or 96 h. Control dishes were cultured with vehicle alone, or with the peptide receptor antagonist of GLP-1, Exendin-9 (100 nM) for 72 h (gift Dr. J. M. Egan). The glucose concentration in the culture medium was 12 mM for both cell lines.
PANC-1 (parental, IDX-1-transfected, and neomycin-transfected) cells and ARIP (only parental) cells were plated at density of 10^6 cells/well in a 6 well plate. Once the cells reached 80% of confluence, they were washed with serum-free medium containing 12 mM glucose and exposed to fresh serum-free medium for increasing length of time (0, 12, 24, 48, 72, 96 h) in the presence of various concentrations of GLP-1 (0.1, 1, 10, 20 nM) or vehicle. Glucose-dependent insulin secretion was evaluated by culturing the cells in the presence of a determined concentration of GLP-1 (10 nM for 72 h) with increasing concentration of glucose in the culture medium ([…]). Insulin released into the medium was measured by RIA (Linco Research Inc.; St. Charles, Mass.). Total insulin accumulation in the culture medium was then normalized for total cellular protein content per each Individual cultures.
Total cellular protein content was measured by utilizing the Bradford method (Bio-Rad; Richmond, Calif.). The amount of proteins measured was used as a correction factor for determining the relative amount of medium to be assayed for each individual RIA for insulin.

In assay [2] the test system is glucose-intolerant aging Wistar rats. Particulars: cited from earlier work.
Assay [3] concerns PANC-1 cells. The experiment in a line: RT-PCR of islet β-cell specific transcripts, parental PANC-1 cells. It is filed as cell-based, human. Particulars: GLP-1 10 nM for 96 h. As to the method: After the treatment of ARIP and PANC-1 cells with GLP-1, Exendin-9, or vehicle, for the described length of time and the various doses, the culture medium was removed and the cells were washed (twice) with serum-free medium. Total RNA was isolated using the TRiazol-method (Gibco-BRL), and treated with DNase (Amplification Grade, GibcoBRL) in 20 mmol/l Tris-HCL (pH 8.4), 2 mmol/l MgCl2, and 50 mmol/l KCl to remove any traces of contaminating genomic DNA. RNA (2.5 μg) was then subjected to reverse transcription (RT reagents; Promega; Madison, Wis.). RT-PCR was undertaken in a volume of 50 μl of buffer containing 50 mmol/l KCl, 10 mmol/l Tris-HCl, 3.5 mmol/l MgCl2, 200 μmol/l each dNTPs, and 0.4 μmol/l each of sense and antisense primers to rat or human insulin (depending on the specific cell from which the RNA was extracted). Amplification was performed for 30 cycles at the denaturing temperature of 94° C. for 1 min, annealing temperature of 60° C. for 45 sec, and an extension temperature of 72° C. for 1 min. […] These included more irregular and variable cell shapes, with a cytoplasm less homogenous and “rougher” in appearance than control culture.
Treatment with GLP-1 induces the differentiation of ductal epithelial cells into insulin-producing cells. FIG. 2 illustrates a series of cell cultures grown with or without GLP-1 (10 nM) for 72 h. […]

The mark [4] stands for this setting: serum-free medium, 12 mM glucose, 72 h.

As to glucagon-like peptide-1 [GLP-1], in the assay with ARIP and PANC-1 cells, the “effect on GLP-R mRNA levels” value was “further modest increase (no-statistically significant)”. Further, the morphological change entry in the assay on PANC-1 cells [1] is reported as “did not respond”. Besides, the “lowest concentration of glucose required to induce the secretion of insulin” value in the assay with ARIP cells (GLP-1 10 nM for 72 h) turned out to be 3 mM. The “glucose dependence of insulin release” value in the assay with ARIP cells (GLP-1 10 nM for 72 h, increasing glucose) was “release insulin in a glucose-dependent manner”. In the assay with ARIP cells (GLP-1 10 nM, 12 mM glucose), the “time of maximal insulin secretion” value is listed as 48 h and the “time of plateau of insulin secretion” value is 72 h. In addition, in the assay with ARIP cells (setting [4]), the “GLP-1 concentration at plateau of insulin accumulation in the culture medium” value was found to be 20 nM and the “minimum concentration of GLP-1 required to transform ARIP ductal cells into insulin producing cells” value was 1 nM. In assay [2], the “effect on glucose tolerance” value is “restored normal glucose tolerance” and the “effect on islet cell proliferation” value was “induced islet cell proliferation”. In the assay on PANC-1 cells [3], the RT-PCR for insulin result is recorded as “consistently negative”.

(Values after patent US6642003B2, “Human glucose-dependent insulin-secreting cell line” (Cedars-Sinai Medical Center, priority 2001, dated 2003).)
